Measurements reported in ChEMBL document CHEMBL5465560, “Selectivity Literature for EUbOPEN Chemogenomic Library” (2024).

Assays:
[1] = biological target: T1, Inhibitor of nuclear factor kappa-B kinase subunit alpha (Homo sapiens) (UniProt O15111); test: Selectivity interaction (KinomeScan (DiscoverX)) EUB0000229b CHUK; settings: at 10 µM
T1 sequence (whole entry): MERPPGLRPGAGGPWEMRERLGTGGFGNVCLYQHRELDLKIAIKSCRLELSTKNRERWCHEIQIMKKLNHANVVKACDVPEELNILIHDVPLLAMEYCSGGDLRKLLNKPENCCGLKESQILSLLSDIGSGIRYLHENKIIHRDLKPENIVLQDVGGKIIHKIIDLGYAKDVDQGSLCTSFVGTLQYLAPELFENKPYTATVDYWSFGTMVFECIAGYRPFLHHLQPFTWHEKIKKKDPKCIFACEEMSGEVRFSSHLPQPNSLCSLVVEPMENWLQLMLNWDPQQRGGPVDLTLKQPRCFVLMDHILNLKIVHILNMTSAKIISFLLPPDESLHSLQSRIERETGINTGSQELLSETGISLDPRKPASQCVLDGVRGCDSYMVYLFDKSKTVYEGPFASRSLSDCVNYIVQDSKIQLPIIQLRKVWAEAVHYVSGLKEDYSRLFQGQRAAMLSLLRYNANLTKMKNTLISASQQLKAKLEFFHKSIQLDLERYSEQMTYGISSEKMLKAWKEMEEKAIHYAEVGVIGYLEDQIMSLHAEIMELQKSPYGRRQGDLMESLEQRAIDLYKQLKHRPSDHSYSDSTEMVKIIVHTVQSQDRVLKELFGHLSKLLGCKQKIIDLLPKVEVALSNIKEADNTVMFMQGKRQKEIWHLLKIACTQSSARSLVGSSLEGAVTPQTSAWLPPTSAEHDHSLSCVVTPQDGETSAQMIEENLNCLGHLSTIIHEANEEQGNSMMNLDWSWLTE

[2] = biological target: Eukaryotic translation initiation factor 2-alpha kinase 1 (Homo sapiens) (UniProt Q9BQI3); test: Selectivity interaction (KinomeScan (DiscoverX)) EUB0000045b EIF2AK1
[3] = biological target: NT-3 growth factor receptor (Homo sapiens, UniProt Q16288); test: Selectivity interaction (KinomeScan (DiscoverX)) EUB0000695a NTRK3; settings: at 100 nM
[4] = biological target: MAP kinase-interacting serine/threonine-protein kinase 1 (Homo sapiens) (UniProt Q9BUB5); test: Selectivity interaction (KinomeScan (DiscoverX)) EUB0001079a MKNK1; settings: at 1 µM
[5] = biological target: Serine/threonine-protein kinase 38-like (Homo sapiens) (UniProt Q9Y2H1); test: Selectivity interaction (LanthaScreen Eu Kinase Binding Assay) EUB0001632a STK38L; settings: at 10 µM
[6] = biological target: LIM domain kinase 2 (Homo sapiens) (UniProt P53671); test: Selectivity interaction (LanthaScreen Eu Kinase Binding Assay) EUB0001632a LIMK2; settings: at 10 µM
[7] = biological target: T2, Serine/threonine-protein kinase Sgk2 (Homo sapiens) (UniProt Q9HBY8); test: Selectivity interaction (Kinase screening (Nanosyn)) EUB0000604a SGK2
T2 sequence (whole entry): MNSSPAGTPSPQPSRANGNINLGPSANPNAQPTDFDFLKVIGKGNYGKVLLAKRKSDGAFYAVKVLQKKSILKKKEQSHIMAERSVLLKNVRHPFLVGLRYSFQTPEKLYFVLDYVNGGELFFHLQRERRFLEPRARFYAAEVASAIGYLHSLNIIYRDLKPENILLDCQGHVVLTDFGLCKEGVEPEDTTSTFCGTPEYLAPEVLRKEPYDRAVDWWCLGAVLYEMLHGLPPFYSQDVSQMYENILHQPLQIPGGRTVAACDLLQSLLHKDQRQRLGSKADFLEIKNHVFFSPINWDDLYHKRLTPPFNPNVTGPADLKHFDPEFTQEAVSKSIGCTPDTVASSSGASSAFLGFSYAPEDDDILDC

[8] = biological target: Serine/threonine-protein kinase/endoribonuclease IRE1 (Homo sapiens) (UniProt O75460); test: Selectivity interaction (KinomeScan (DiscoverX)) EUB0001049a ERN1; settings: at 1 µM
Mu-type opioid receptor = Mu-type opioid receptor (Homo sapiens, UniProt P35372); test: Selectivity interaction (Panel of kinases, GPCRs, ion channels and transporters (enzymatic assay)) EUB0000223bCl OPRM1
[9] = biological target: T3, MAP/microtubule affinity-regulating kinase 4 (Homo sapiens) (UniProt Q96L34); test: Selectivity interaction (ActivX KiNativ screen (kinase selectivity in THP-1 cell lysates)) EUB0000639a MARK4; type: subcellular; settings: lysate, at 5 µM
T3 sequence (whole entry): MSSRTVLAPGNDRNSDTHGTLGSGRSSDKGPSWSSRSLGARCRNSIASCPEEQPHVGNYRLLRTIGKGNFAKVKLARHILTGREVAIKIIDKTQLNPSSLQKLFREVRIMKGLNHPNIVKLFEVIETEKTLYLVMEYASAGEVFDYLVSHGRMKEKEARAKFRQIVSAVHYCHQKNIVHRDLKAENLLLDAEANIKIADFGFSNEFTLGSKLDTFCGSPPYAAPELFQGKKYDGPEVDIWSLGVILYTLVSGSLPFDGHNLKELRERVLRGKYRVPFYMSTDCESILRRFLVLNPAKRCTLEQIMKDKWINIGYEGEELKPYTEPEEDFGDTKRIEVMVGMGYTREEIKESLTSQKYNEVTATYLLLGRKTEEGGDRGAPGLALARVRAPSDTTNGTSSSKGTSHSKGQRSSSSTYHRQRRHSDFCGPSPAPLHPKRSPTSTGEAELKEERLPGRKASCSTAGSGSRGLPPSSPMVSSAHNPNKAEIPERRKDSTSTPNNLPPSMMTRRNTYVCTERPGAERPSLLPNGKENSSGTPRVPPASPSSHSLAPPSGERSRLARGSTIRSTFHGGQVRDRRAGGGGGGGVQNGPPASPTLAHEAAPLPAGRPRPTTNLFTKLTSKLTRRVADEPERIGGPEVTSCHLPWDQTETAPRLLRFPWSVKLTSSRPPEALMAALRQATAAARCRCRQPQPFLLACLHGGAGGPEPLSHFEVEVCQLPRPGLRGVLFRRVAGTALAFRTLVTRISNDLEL

[10] = biological target: Ribosomal protein S6 kinase alpha-5 (Homo sapiens) (UniProt O75582); test: Selectivity interaction (Ambit KINOMEscan and KiNATiv profiling in Jurkat cells) EUB0000090b RPS6KA5; type: cell-based; settings: at 1 µM
Ephrin type-A receptor 4 = Ephrin type-A receptor 4 (Homo sapiens, UniProt P54764); test: Selectivity interaction (Ambit KINOMEscan and KiNATiv profiling in Jurkat cells) EUB0000090b EPHA4; type: cell-based; settings: at 1 µM
Sequence of Ephrin type-A receptor 4 (P54764 whole entry): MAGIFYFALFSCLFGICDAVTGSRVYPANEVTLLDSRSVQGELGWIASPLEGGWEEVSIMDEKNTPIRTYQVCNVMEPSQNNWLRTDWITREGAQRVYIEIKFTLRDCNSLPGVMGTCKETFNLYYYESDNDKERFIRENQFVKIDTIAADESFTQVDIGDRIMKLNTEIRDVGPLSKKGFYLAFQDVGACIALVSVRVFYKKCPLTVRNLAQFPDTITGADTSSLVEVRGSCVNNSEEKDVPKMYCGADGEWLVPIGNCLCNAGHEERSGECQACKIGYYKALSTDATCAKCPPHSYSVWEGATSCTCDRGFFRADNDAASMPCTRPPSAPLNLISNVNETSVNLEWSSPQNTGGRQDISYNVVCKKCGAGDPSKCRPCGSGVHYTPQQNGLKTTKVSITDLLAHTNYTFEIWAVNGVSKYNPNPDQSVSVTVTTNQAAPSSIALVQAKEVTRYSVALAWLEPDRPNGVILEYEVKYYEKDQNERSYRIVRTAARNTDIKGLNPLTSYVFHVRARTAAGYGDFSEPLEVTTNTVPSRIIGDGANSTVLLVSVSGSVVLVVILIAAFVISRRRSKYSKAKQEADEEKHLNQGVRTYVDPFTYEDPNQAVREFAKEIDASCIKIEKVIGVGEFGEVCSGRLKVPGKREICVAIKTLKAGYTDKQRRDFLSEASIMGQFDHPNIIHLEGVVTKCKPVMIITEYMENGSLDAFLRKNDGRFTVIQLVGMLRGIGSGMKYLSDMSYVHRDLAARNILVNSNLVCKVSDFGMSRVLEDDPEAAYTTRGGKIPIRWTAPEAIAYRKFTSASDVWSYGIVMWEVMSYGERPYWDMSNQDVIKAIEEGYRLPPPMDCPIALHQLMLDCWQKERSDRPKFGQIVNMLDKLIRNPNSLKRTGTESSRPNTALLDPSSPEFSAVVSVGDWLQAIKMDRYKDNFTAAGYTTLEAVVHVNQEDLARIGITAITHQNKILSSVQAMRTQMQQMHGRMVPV

Sequence of Eukaryotic translation initiation factor 2-alpha kinase 1 (Homo sapiens) (Q9BQI3 whole entry): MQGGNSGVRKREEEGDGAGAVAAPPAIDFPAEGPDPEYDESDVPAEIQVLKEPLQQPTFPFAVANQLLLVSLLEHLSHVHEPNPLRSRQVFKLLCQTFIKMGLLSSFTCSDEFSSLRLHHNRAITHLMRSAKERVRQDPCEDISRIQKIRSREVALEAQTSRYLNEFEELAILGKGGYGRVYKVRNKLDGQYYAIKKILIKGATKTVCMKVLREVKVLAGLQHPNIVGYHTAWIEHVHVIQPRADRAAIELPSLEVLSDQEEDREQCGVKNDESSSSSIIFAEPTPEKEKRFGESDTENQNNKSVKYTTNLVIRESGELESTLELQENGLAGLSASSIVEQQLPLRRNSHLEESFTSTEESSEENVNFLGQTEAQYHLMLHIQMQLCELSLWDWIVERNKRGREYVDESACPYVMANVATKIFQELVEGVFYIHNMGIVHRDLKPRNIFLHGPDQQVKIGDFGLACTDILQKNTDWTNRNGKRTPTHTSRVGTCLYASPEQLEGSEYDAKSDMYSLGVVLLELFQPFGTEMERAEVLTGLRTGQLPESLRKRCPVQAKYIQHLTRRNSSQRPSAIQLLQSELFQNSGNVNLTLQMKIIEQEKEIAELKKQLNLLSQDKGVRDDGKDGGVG
Sequence of LIM domain kinase 2 (Homo sapiens) (P53671 whole entry, looked up, the tested form may be a part): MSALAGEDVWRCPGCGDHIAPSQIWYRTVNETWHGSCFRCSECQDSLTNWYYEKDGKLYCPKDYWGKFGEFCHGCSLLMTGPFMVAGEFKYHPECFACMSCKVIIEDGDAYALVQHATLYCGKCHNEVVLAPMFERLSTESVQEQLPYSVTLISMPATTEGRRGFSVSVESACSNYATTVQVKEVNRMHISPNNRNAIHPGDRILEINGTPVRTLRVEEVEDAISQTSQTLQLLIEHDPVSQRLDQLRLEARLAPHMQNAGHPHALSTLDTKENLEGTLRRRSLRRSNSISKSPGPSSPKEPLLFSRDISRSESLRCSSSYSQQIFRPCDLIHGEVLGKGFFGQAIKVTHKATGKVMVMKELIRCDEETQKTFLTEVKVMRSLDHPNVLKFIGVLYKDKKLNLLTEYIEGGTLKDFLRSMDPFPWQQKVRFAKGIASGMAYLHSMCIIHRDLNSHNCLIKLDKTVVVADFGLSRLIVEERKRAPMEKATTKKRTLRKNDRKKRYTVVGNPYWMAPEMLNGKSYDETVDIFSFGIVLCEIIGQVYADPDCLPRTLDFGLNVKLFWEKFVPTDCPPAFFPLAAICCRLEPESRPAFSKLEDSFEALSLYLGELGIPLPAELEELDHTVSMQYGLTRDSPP
Sequence of Mu-type opioid receptor (P35372 whole entry): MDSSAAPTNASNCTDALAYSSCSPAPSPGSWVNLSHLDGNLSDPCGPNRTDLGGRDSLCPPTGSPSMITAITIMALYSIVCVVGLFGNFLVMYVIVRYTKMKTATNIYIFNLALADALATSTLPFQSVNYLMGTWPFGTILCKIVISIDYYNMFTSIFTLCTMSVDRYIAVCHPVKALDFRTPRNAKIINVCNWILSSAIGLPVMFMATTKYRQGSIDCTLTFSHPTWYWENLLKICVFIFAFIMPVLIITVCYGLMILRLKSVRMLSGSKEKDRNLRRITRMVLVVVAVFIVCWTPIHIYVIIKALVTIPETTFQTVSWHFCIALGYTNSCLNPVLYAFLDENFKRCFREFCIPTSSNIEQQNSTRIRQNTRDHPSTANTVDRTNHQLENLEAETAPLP
Sequence of Ribosomal protein S6 kinase alpha-5 (Homo sapiens) (O75582 whole entry, looked up): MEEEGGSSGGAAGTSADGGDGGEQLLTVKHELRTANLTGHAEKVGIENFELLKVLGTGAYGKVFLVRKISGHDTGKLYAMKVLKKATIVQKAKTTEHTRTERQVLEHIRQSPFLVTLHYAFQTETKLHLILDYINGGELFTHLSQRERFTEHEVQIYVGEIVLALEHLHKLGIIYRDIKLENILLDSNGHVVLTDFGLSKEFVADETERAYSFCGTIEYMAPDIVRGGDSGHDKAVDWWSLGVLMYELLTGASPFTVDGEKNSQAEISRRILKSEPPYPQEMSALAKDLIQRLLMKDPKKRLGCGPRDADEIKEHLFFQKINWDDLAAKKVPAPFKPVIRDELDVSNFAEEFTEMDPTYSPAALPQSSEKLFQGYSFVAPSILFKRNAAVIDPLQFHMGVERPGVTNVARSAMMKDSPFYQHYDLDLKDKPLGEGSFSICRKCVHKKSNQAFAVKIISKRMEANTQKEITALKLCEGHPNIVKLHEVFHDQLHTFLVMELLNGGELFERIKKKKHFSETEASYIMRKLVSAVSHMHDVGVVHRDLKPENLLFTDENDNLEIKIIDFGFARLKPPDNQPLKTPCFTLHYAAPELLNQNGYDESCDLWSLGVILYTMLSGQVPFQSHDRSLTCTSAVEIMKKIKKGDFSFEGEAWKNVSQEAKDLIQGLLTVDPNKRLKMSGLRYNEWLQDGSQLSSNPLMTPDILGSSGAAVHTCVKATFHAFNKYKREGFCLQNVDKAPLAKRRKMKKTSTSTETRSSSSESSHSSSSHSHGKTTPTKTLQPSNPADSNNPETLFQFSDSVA
Sequence of Serine/threonine-protein kinase 38-like (Homo sapiens) (Q9Y2H1 2-464 limits assumed): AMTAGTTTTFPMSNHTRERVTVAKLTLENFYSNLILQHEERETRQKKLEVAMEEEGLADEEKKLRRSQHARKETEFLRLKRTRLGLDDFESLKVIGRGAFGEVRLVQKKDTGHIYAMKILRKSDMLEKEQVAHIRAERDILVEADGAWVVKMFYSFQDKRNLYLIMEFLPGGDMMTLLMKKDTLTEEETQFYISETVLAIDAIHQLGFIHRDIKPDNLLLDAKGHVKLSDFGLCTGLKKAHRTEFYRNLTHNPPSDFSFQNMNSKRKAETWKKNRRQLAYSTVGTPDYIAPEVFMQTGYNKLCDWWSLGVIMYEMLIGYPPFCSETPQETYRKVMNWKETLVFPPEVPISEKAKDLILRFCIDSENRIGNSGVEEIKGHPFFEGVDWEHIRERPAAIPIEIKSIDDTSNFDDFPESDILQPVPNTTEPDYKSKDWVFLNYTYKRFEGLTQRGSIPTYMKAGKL
Sequence of MAP kinase-interacting serine/threonine-protein kinase 1 (Homo sapiens) (Q9BUB5 whole entry, looked up): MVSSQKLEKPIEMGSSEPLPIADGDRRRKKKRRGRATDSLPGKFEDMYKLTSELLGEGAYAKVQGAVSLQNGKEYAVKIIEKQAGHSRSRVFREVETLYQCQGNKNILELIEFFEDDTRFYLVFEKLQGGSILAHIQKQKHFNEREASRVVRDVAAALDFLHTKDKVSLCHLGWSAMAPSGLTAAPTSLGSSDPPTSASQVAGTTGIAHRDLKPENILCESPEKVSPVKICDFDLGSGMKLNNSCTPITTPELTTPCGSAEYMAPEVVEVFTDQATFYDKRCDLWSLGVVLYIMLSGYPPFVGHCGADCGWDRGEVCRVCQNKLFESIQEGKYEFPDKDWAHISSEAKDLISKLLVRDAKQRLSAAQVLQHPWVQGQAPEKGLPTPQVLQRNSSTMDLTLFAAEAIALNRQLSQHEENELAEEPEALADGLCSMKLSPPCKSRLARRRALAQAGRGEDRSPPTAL

## COc1cc(N(C)c2ccnc3ccc(C(F)(F)F)cc23)cc(OC)c1OC
[1]
  % binding: 92%

## C=CC(=O)Nc1cc(-n2c(=O)ccc3cnc4ccc(-c5ccc(NS(C)(=O)=O)cc5)cc4c32)ccc1C
[2]; at 1 µM
  % of control: 100%
[2]; at 10 µM
  % of control: 100%

## Cc1cc(F)c(C(=O)Nc2cccc(-c3nncn3C(C)C)n2)cc1-n1cnc(C2CC2)c1
[3]
  % of control: 86%

## Nc1cnc(N2CCc3cc(S(=O)(=O)Nc4c(F)cc(Cl)cc4F)cc(N4CCCC4=O)c32)nc1 [TP-020n]
[4]
  % of control: 98%

## Cn1cc(-n2cnc3c(NCc4nc5cc(Cl)c(Cl)cc5[nH]4)nc(N4CCOCC4)nc32)cn1
[5]
  % of inhibition: -54.8%
[6]
  % of inhibition: -10.5%

## Cc1cnc(Nc2ccc(F)cc2Cl)nc1-c1c[nH]c(C(=O)N[C@H](CO)c2cccc(Cl)c2)c1
[7]
  % of inhibition: 41%

## COc1cc(Nc2nc(C)cc(-c3cnn4nc(OC)ccc34)n2)cc(C(F)(F)F)c1
[8]
  % of control: 100%

## COc1cc(C(=O)N2CC[C@@H](O)[C@@H](N)C2)cc2nc(-c3cc4ccccc4n3CC3CC3)n(C)c12
Mu-type opioid receptor
  pXC50: < 4 M

## CC[C@@H]1[C@H](F)C(=O)N[C@@H]1COc1nccc2cc(C(N)=O)c(OC)cc12 [ZIMLOVISERTIB]
[9]
  % of inhibition: 27.1%

## CN(C)C/C=C/C(=O)Nc1ccc(C(=O)N2CCCC(Nc3ncc(Cl)c(-c4c[nH]c5ccccc45)n3)C2)cc1 (stereo not drawn)
[10]
  % of control: 86%
Ephrin type-A receptor 4
  % of control: 98%
